Experimental data: patent US6872827B2, “Somatostatin analogue compounds” (Chembridge Research Laboratories, Inc., priority 2002, dated 2005)
“And” between values parts separate entries of the source, which are not always exact repeats. Identical values can stand only once. Like-named read-outs stand apart in the source and are kept apart here.

Key:
Somatostatin sst1 = molecular target: T1, Somatostatin sst1 (Homo sapiens, UniProt P30872); test: Somatostatin sst1 radioligand binding assay; settings: for % inh / inhibition at 10 µM: Conc 10 μM
T1 construct: host or cells: CHO-K1
Protocol: (§1) Compounds of the present invention were assessed for their binding affinity to sst1, sst3, and sst4 receptors by biochemical and radioligand assay according to the following procedures. The assays were conducted by MDS Pharma Services—Taiwan Ltd., Pharmacology Laboratories, 158 Li-The Road, Peitou, Taipei, Taiwan 112, R.O.C.
The protocol for sstl assay was adapted from Liapakis, G., Fitzpatrick, D., Hoeger, C., Rivier, J., Vandlen, R. and Reisine, T. (1996) “Identification of ligand binding determinants in the somatostatin receptor subtypes 1 and 2.”J. Biol. Chem. 271(24): 20331-20339, 1996; and Patel, Y. C. and Srikant, C. B. (1994) “Subtype selectivity of peptide analogs for all five cloned human somatostatin receptors (hsstr 1-5).” Endocrinology 135 (6): 2814-2817, 1994. The protocol were and can be conducted according to the following conditions.
(§2) IC50 values were determined by a non-linear, least squares regression analysis using Data Analysis Toolbox™ (MDL Information Systems, San Leandro, Calif., USA). Where inhibition constants (Ki) are presented, the Ki values were calculated using the equation of Cheng and Prusoff (Cheng, Y., Prusoff, W. H., Biochem. Pharmacol. 22:3099-3108, 1973) using the observed IC50 of the tested compound, the concentration of the radioligand employed in the assay, and the historical values for the Kd of the ligand (obtained experimentally at MDS Pharma Services). Where presented, the Hill coefficient (nH), defining the slope of the competitive binding curve, was calculated using Data Analysis Toolbox™. […] Where IC50, Ki and/or nH data are presented without Standard Error of the Mean (SEM), data are insufficient to be quantitative, and the values presented (Ki, IC50, nH) should be interpreted accordingly.

Somatostatin sst 3 = molecular target: T2, Somatostatin sst 3 (Homo sapiens, UniProt P32745); test: Somatostatin sst3 radioligand binding assay; settings: for % inh / inhibition at 10 µM: Conc 10 μM (Conc not given in some rows)
T2 construct: host or cells: CHO-K1
Protocol: as §1
The protocol for sst3 assay was adapted from Liapakis, G., Fitzpatrick, D., Hoeger, C., Rivier, J., Vandlen, R. and Reisine, T. (1996) “Identification of ligand binding determinants in the somatostatin receptor subtypes 1 and 2.”J. Biol. Chem. 271(24): 20331-20339, 1996; and Patel, Y. C. and Srikant, C. B. (1994) “Subtype selectivity of peptide analogs for all five cloned human somatostatin receptors (hsstr 1-5).” Endocrinology 135 (6): 2814-2817, 1994. The protocol were and can be conducted according to the following conditions.
as §2

Somatostatin sst4 = molecular target: T3, Somatostatin sst4 (Homo sapiens, UniProt P31391); test: Somatostatin sst4 radioligand binding assay; settings: for % inh / inhibition at 10 µM: Conc 10 μM (Conc not given in some rows)
T3 construct: host or cells: CHO-K1
Protocol: as §1
The protocol for sst4 assay was adapted from Patel, Y. C. and Srikant, C. B. (1994) “Subtype selectivity of peptide analogs for all five cloned human somatostatin receptors (hsstr 1-5).” Endocrinology 135 (6): 2814-2817, 1994. The protocol were and can be conducted according to the following conditions.
as §2

Sst5 = molecular target: T4, Sst5 (Cavia porcellus, UniProt H0W1F1); test: Sst5 (functional) assay, Vas def gp; settings: Table 4, Conc 30 μM; for activation at 30 µM: read-out: % Ag
T4 sequence (H0W1F1 1-365): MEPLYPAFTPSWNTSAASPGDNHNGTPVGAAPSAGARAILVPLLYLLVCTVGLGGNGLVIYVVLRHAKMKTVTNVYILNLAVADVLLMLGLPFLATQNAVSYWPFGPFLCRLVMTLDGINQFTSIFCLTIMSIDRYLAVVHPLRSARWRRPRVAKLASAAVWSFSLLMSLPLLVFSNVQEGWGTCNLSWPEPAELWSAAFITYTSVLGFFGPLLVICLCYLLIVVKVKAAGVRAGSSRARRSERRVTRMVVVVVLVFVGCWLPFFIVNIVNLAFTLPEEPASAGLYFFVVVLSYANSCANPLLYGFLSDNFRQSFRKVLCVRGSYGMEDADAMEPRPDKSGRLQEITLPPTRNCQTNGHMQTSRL

[1] = Hill coefficient of competitive binding curve

T3 sequence (P31391 whole entry): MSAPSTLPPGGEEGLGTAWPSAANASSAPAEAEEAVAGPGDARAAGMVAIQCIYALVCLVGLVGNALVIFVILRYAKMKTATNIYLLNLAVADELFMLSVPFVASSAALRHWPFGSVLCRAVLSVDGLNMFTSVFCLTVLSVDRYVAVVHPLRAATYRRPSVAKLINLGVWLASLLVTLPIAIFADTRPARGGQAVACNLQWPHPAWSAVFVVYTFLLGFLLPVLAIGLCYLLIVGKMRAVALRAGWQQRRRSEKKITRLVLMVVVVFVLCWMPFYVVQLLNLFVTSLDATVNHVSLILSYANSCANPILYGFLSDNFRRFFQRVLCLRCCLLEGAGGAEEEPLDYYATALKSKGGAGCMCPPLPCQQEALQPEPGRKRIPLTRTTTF
T1 sequence (P30872 whole entry): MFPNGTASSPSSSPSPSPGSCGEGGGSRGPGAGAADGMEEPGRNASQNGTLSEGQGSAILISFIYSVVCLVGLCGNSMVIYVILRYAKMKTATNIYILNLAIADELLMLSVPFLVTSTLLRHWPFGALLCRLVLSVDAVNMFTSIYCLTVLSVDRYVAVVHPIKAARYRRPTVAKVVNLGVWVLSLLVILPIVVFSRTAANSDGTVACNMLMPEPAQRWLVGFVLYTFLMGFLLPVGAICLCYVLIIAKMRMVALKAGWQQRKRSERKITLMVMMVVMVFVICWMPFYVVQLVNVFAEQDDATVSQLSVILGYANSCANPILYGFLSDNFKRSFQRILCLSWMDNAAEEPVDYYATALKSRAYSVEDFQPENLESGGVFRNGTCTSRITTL
T2 sequence (P32745 whole entry): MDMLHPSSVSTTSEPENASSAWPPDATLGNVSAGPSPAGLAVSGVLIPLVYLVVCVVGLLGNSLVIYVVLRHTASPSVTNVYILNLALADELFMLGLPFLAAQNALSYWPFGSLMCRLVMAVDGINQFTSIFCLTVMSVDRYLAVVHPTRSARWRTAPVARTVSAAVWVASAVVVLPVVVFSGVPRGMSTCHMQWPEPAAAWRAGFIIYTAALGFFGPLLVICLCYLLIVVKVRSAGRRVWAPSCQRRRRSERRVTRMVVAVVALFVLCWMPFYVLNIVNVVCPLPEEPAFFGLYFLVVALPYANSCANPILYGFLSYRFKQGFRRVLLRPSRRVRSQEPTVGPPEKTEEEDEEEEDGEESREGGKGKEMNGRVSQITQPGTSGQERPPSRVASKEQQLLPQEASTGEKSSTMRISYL

| Molecule | nH (Somatostatin sst1; Table 4, human) | nH (Somatostatin sst 3; Table 4, human) | nH (Somatostatin sst4; Table 4, human) | inhibition at 10 µM (Somatostatin sst1; Table 4, human) [%] | inhibition at 10 µM (Somatostatin sst 3; Table 4, human) [%] | inhibition at 10 µM (Somatostatin sst4; Table 4, human) [%] | IC50 (Somatostatin sst1; Table 4, human) [µM] | Ki (Somatostatin sst1; Table 4, human) [µM] | IC50 (Somatostatin sst 3; Table 4, human) [µM] | Ki (Somatostatin sst 3; Table 4, human) [µM] | IC50 (Somatostatin sst4; Table 4, human) [µM] | Ki (Somatostatin sst4; Table 4, human) [µM] | further results |
| --- | --- | --- | --- | --- | --- | --- | --- | --- | --- | --- | --- | --- | --- |
| 7-(4-methoxy-phenoxy)-3,4-dihydro-2H-quinoline-1-(4-aminobutyl-1-yl-)-4-spiro-5′-1′-methy-3′-[2-(1H-indol-3-yl-ethyl]-imidazoline-2′4′-dione [G] | 0.67 | 0.985 | 0.786 |  |  |  |  |  |  |  |  |  | % inh (Somatostatin sst1; Table 4, human): 64%; % inh (Somatostatin sst 3; Table 4, human): 60%; % inh (Somatostatin sst4; Table 4, human): 68% |
| CN1C(=O)N(Cc2c[nH]c3ccccc23)C2(CCN(C(=O)CCCN)c3cc(Oc4ccccc4)ccc32)C1=O (stereo not drawn) [C, 7-phenoxy-3,4-dihydro-2H-quinoline-1-(4-amino-butyl-1-one)-4-spiro-5′-1′-(1H-indol-3-ylmethyl)-3′-methyl-imidazoline-2′,4′-dione] |  |  |  |  |  |  |  |  |  |  |  |  | % inh (Somatostatin sst1; Table 4, human): 24%; % inh (Somatostatin sst 3; Table 4, human): 25%; % inh (Somatostatin sst4; Table 4, human): 32% |
| CN1C(=O)N(Cc2c[nH]c3ccccc23)C(=O)C12CCN(C(=O)CCCN)c1cc(Oc3ccccc3)ccc12 (stereo not drawn) [Compound A, 7-phenoxy-3,4-dihydro-2H-quinoline-1-(4-amino-butanonyl)-4-spiro-5′-1′-methyl-3′-(1H-indol-3-ylmethyl)-imidazolidine-2′,4′-dione] | 0.433 | 0.564 | 0.504 | 54 | 56 | 50 |  |  |  |  |  |  | IC50 (Somatostatin sst1): 6.39 µM; Ki (Somatostatin sst1; Cheng-Prusoff from IC50): 6.07 µM; nH (Somatostatin sst1; [1]): 0.433; IC50 (Somatostatin sst 3): 6.59 µM; Ki (Somatostatin sst 3; Cheng-Prusoff from IC50): 5.85 µM; nH (Somatostatin sst 3; [1]): 0.564; IC50 (Somatostatin sst4): 6 µM; Ki (Somatostatin sst4; Cheng-Prusoff from IC50): 5.27 µM; nH (Somatostatin sst4; [1]): 0.504; activation at 30 µM (Sst5): 61% |
| Cc1ccc(Oc2ccc3c(c2)N(CCCCN)CCC32C(=O)N(C)C(=O)N2Cc2c[nH]c3ccccc23)cc1 (stereo not drawn) [D, 7-Tolyloxy-3′-4′-dihydro-2H-quinoline-1-(aminobutan-1yl)-4-spiro-5′-1′-(1H-indol-3-yl-methyl)-3′methyl-imidazolidine-2′4′-dione] | 0.654 | 2.34 | 1.15 | 84 | 68 | 68 | 0.807 | 0.767 | 7.05 | 6.26 | 5.13 | 4.51 |  |
| Cc1ccc(Oc2ccc3c(c2)N(CCCCN)CCC32C(=O)N(CCc3c[nH]c4ccccc34)C(=O)N2C)cc1 (stereo not drawn) [H, 7-Tolyloxy-3′-4′-dihydro-2H-quinoline-1-(4-amino-butan-1yl)-4-spiro-5′-1′-methyl-3′[2-(1H-indol-3-yl)-ethyl]-imidazolidine-2′4′-dione] | 1.38 | 0.922 | 1 | 66 | 57 | 68 | 1.24 | 1.18 | 7.58 | 6.73 | 0.649 | 0.57 |  |
| CN1C(=O)N(CCc2c[nH]c3ccccc23)C(=O)C12CCN(CCCCN)c1cc(Oc3ccc4c(c3)OCO4)ccc12 (stereo not drawn) [J, 7-(Benzo-[1,3]-dioxol-5-yloxy)-3′-4′-dihydro-2H-quinoline-1-(4-amino-butan-1yl)-4-spiro-5′-1′-methyl-3′[2-(-1H-indol-3-yl)-ethyl]-imidazolidine-2′4′-dione] | 1.28 | 0.915 | 1.25 | 69 | 72 | 72 | 0.699 | 0.664 | 3.71 | 3.29 | 0.754 | 0.663 | activation at 30 µM (Sst5): -11%; inhibition at 30 µM (Sst5; guinea pig, read-out: % Ant): 1% |
| Somatostatin-14 [reference compound] |  |  |  |  |  |  |  |  |  |  |  |  | nH (Somatostatin sst1; [1]): 0.628 and 0.747; nH (Somatostatin sst 3; [1]): 0.73 and 0.775; nH (Somatostatin sst4; [1]): 1.02 |

Further lines, with some results ahead:

| nH (Somatostatin sst1; Table 4, human) | nH (Somatostatin sst 3; Table 4, human) | nH (Somatostatin sst4; Table 4, human) | inhibition at 10 µM (Somatostatin sst1; Table 4, human) [%] | inhibition at 10 µM (Somatostatin sst 3; Table 4, human) [%] | inhibition at 10 µM (Somatostatin sst4; Table 4, human) [%] | IC50 (Somatostatin sst1; Table 4, human) [µM] | Ki (Somatostatin sst1; Table 4, human) [µM] | IC50 (Somatostatin sst 3; Table 4, human) [µM] | Ki (Somatostatin sst 3; Table 4, human) [µM] | IC50 (Somatostatin sst4; Table 4, human) [µM] | Ki (Somatostatin sst4; Table 4, human) [µM] | Molecule | further results |
| --- | --- | --- | --- | --- | --- | --- | --- | --- | --- | --- | --- | --- | --- |
| 1.16 | 1.3 | 1.37 |  |  |  |  |  |  |  |  |  | 7-Phenoxy-3′-4′-dihydro-2H-quinoline 1-(methylpiperidine-4-yl)-4-spiro-5′-1′-(1H-indole-3yl-methyl)-3′-methyl-imidazoline-2′-4′-dione | % inh (Somatostatin sst1; Table 4, human): 89%; % inh (Somatostatin sst 3; Table 4, human): 86%; % inh (Somatostatin sst4; Table 4, human): 89% |
| 0.62 | 0.722 |  | 57 | 60 | 39 |  |  |  |  |  |  | CN1C(=O)N(Cc2c[nH]c3ccccc23)C2(CCN(CCCCN)c3cc(Oc4ccccc4)ccc32)C1=O (stereo not drawn) [Compound B, 7-phenoxy-3,4-dihydro-2H-quinoline-1-(4-butylamine)-4-spiro-5′-1′-(1H-indol-3-ylmethyl)-3′-methyl-imidazolidine-2′,4′-dione] | IC50 (Somatostatin sst1): 3.25 µM; Ki (Somatostatin sst1; Cheng-Prusoff from IC50): 3.09 µM; nH (Somatostatin sst1; [1]): 0.62; IC50 (Somatostatin sst 3): 5.84 µM; Ki (Somatostatin sst 3; Cheng-Prusoff from IC50): 5.18 µM; nH (Somatostatin sst 3; [1]): 0.722 |
| 0.992 |  |  | 87 |  |  | 1.32 | 1.25 |  |  |  |  | CN1C(=O)N(CCc2c[nH]c3ccccc23)C(=O)C12CCN(CCCCN)c1cc(O)ccc12 (stereo not drawn) [F] |  |
| 0.598 | 0.977 | 1.16 | 66 | 56 | 71 | 3.38 | 3.21 | 7.96 | 7.06 | 2.62 | 2.3 | Cc1ccc(Oc2ccc3c(c2)N(CCCCN)CCC32C(=O)N(CCc3c[nH]c4ccccc34)C(=O)N2C)cc1C (stereo not drawn) [I] |  |
